The source of these data is patent publication US20020028836A1, “Potassium channel openers” (priority 2000, published 2002).

Read-outs that look alike come from different tables or passages of the source.

In the test the test system is tissue strips obtained from Landrace pig bladders. Description: Functional potassium channel opening activity in isolated bladder strips (field-stimulated twitch). The note with it: for Index: ED50 for P1075 divided by ED50 for the test agonist in a given tissue, averaged; for EC50: amount of agent necessary to cause 50% of the agent's maximal response, read-out: ED50 (the source's name); for Efficacy (% P1075) / Emax: maximal efficacy relative to P1075, field stimulation 0.05 Hz, 0.5 ms, 20 volts. The method, then:
Compounds were evaluated for functional potassium channel opening activity using tissue strips obtained from Landrace pig bladders.
Landrace pig bladders were obtained from female Landrace pigs of 9-30 kg. Landrace pigs were euthanized with an intraperitoneal injection of pentobarbital solution, Somlethal®, J. A. Webster Inc., Sterling, Mass. The entire bladder was removed and immediately placed into Krebs Ringer bicarbonate solution (composition, mM: NaCl, 120; NaHCO3, 20; dextrose, 11; KCl, 4.7; CaCl2, 2.5; MgSO4, 1.5; KH2PO4, 1.2; K2EDTA, 0.01, equilibrated with 5% CO2/95% O2pH 7.4 at 37° C.). Propranolol (0.004 mM) was included in all of the assays to block β-adrenoceptors. The trigonal and dome portions were discarded. Strips 3-5 mm wide and 20 mm long were prepared from the remaining tissue cut in a circular fashion. The mucosal layer was removed. One end was fixed to a stationary glass rod and the other to a Grass FT03 transducer at a basal preload of 1.0 gram. Two parallel platinum electrodes were included in the stationary glass rod to provide field stimulation of 0.05 Hz, 0.5 milli-seconds at 20 volts. This low frequency stimulation produced a stable twitch response of 100-500 centigrams. Tissues were allowed to equilibrate for at least 60 minutes and primed with 80 mM KCl. A control concentration response curve (cumulative) was generated for each tissue using the potassium channel opener P1075 as the control agonist. […] After a 60 minute rinsing period, a concentration response curve (cumulative) was generated for the test agonist in the same fashion as that used for the control agonist P1075. The maximal efficacy of each compound (expressed as % relative to P1075) is reported. The amount of agent necessary to cause 50% of the agent's maximal response (ED50) was calculated using “ALLFIT” (DeLean et al., Am. J. Physiol., 235, E97 (1980)), hereby incorporated by reference. Agonist potencies were also expressed as an index relative to P1075. The index was calculated by dividing the ED50 for P1075 by the ED50 for the test agonist in a given tissue. Each tissue was used for only one test agonist, and the indices obtained from each tissue were averaged to provide an average index of potency.

In the case of `CC(Cl)(Cl)C(NC(=O)c1ccc(Cl)cc1)NC(=NC#N)Nc1cccnc1` (single isomer, unassigned; (+)) [Example 118, (+) 4-chloro-N-(2,2-dichloro-1-{[(cyanoimino)(3-pyridinylamino)methyl]amino}propyl)benzamide], the Index came to 0.006, the EC50 worked out at 22 µM and the “Efficacy (% P1075)” value is listed as 69 % P1075.

For the compound `CC(C)(C)CC(NC(=O)c1ccc(Cl)cc1)NC(=N[N+](=O)[O-])Nc1cccnc1` (single isomer, unassigned; (+)) [Example 125, (+) 4-chloro-N-(1-{[(nitroimino)(3-pyridinylamino)methyl]amino}-3,3-dimethylbutyl)benzamide], the Index is on record as 0.030, the EC50 was found to be 9.2 µM and the “Efficacy (% P1075)” value was 92 % P1075.

Turning to `CC(Cl)(Cl)C(NC(=O)c1ccc(Cl)cc1)NC(=NC#N)Nc1ccc(Cl)nc1` (single isomer, unassigned; (+)) [Example 162, (+) 4-chloro-N-(2,2-dichloro-1-{[[(6-chloro-3-pyridinyl)amino](cyanoimino)methyl]amino}propyl)benzamide], the Index amounted to 0.025, the EC50 stood at 9 µM and the “Efficacy (% P1075)” value worked out at 87 % P1075.

As to `CC(C)(C)CC(NC(=O)c1ccc(Cl)cc1)NC(=NS(=O)(=O)C(F)(F)F)Nc1cccnc1` (single isomer, unassigned; (+)) [Example 186, (+) 4-chloro-N-{3,3-dimethyl-1-[((3-pyridinylamino){[(trifluoromethyl)sulfonyl]imino}methyl)amino]butyl}benzamide], the Index is given as 2.1, the EC50 came out at 1.2 µM and the “Efficacy (% P1075)” value was 66 % P1075.

Consider `CC(Cl)(Cl)C(NC(=O)c1ccc(Cl)cc1)NC(=NC#N)Nc1cccnc1` (single isomer, unassigned; (-)) [Example 117, (−) 4-chloro-N-(2,2-dichloro-1-{[(cyanoimino)(3-pyridinylamino)methyl]amino}propyl)benzamide], for which the Index was determined as 0.030, the EC50 amounted to 5.8 µM and the “Efficacy (% P1075)” value came to 79 % P1075.

With `CC(Cl)(Cl)C(NC(=O)c1ccc(Cl)cc1)NC(=NC#N)Nc1ccc(Cl)nc1` (single isomer, unassigned; (-)) [Example 161, (−) 4-chloro-N-(2,2-dichloro-1-{[[(6-chloro-3-pyridinyl)amino](cyanoimino)methyl]amino}propyl)benzamide], the Index is on record as 0.108, the EC50 stood at 4 µM and the “Efficacy (% P1075)” value is listed as 93 % P1075.

On to `CC(C)(C)CC(NC(=O)c1ccc(Cl)cc1)NC(=NS(=O)(=O)C(F)(F)F)Nc1cccnc1` (single isomer, unassigned; (-)) [Example 187, (−) 4-chloro-N-{3,3-dimethyl-1-[((3-pyridinylamino){[(trifluoromethyl)sulfonyl]imino}methyl)amino]butyl}benzamide], for which the Index was 0.077, the EC50 was 7.8 µM and the “Efficacy (% P1075)” value is recorded as 52 % P1075.

On to `CC(C)(C)C(NC(=O)c1ccc(Cl)cc1)NC(=NC#N)Nc1cnc2ccccc2c1` (stereo not drawn) [Example 83, 4-chloro-N-(1-{[(cyanoimino)(3-guinolinylamino)methyl]amino}-2,2-dimethylpropyl)benzamide], for which the Index came to 0.031, the EC50 was found to be 2.8 µM and the “Efficacy (% P1075)” value was found to be 62 % P1075.

`CC(C)(C)C(NC(=O)c1cc(F)cc(F)c1)NC(=NC#N)Nc1cccnc1` (stereo not drawn) [Example 110, N-(1-{[(cyanoimino)(3-pyridinylamino)methyl]amino}-2,2-dimethylpropyl)-3,5-difluorobenzamide] displayed an Index of 0.017. Under “Sus scrofa”, the EC50 is 6.2 µM and the Emax worked out at 61%.

Consider `CC(Cl)(Cl)C(NC(=O)c1ccc(Cl)cc1)NC(=NC#N)Nc1cccnc1` (stereo not drawn) [Example 116, 4-chloro-N-(2,2-dichloro-1-{[(cyanoimino)(3-pyridinylamino)methyl]amino}propyl)benzamide], for which the Index came to 0.028, the EC50 stood at 3.3 µM and the “Efficacy (% P1075)” value amounted to 94 % P1075.

`CC(Cl)(Cl)C(NC(=O)c1cccc(Cl)c1)NC(=NC#N)Nc1cccnc1` (stereo not drawn) [Example 119, 3-chloro-N-(2,2-dichloro-1-{[(cyanoimino)(3-pyridinylamino)methyl]amino}propyl)benzamide] showed an Index of 0.939. In addition, under “Sus scrofa”, the EC50 was 3.4 µM and the Emax came out at 78%.

In turn, `CC(Cl)(Cl)C(NC(=O)c1cc(F)cc(F)c1)NC(=NC#N)Nc1cccnc1` (stereo not drawn) [Example 120, N-(2,2-dichloro-1-{[(cyanoimino)(3-pyridinylamino)methyl]amino}propyl)-3,5-difluorobenzamide] had an Index of 0.017. Also, where the note is “Sus scrofa”, the EC50 amounted to 7.5 µM and the maximum response (Emax) stood at 84%.

Consider `N#CN=C(Nc1cccnc1)NC(NC(=O)c1ccc(Cl)cc1)C(F)(F)C(F)(F)F` (stereo not drawn) [Example 121, 4-chloro-N-(1-{[(cyanoimino)(3-pyridinylamino)methyl]amino}-2,2,3,3,3-pentafluoropropyl)benzamide], for which the Index was found to be 0.044. Under “Sus scrofa”, the EC50 stood at 4.8 µM and the Emax was 89%.

`CC(C)(C)CC(NC(=O)c1ccc(Cl)cc1)NC(=NS(=O)(=O)C(F)(F)F)Nc1cccnc1` (stereo not drawn) [Example 142, 4-chloro-N-{3,3-dimethyl-1-[((3-pyridinylamino){[(trifluoromethyl)sulfonyl]imino}methyl)amino]butyl}benzamide]: the Index came out at 0.270, the EC50 is 0.6 µM and the “Efficacy (% P1075)” value amounted to 44 % P1075.

Take `CC(Cl)(Cl)C(NC(=O)c1cc(F)cc(F)c1)NC(=NC#N)Nc1ccc(C(F)(F)F)nc1` (stereo not drawn) [Example 155, N-{2,2-dichloro-1-[((cyanoimino){[6-(trifluoromethyl)-3-pyridinyl]amino}methyl)amino]propyl}-3,5-difluorobenzamide]: the Index was 0.022. In addition, for the setting “Sus scrofa”, the EC50 was found to be 2.5 µM and the maximal effect (Emax) came to 95%.

The compound `CC(Cl)(Cl)C(NC(=O)c1cccc(F)c1)NC(=NC#N)Nc1ccc(Cl)nc1` (stereo not drawn) [Example 156, N-(2,2-dichloro-1-{[[(6-chloro-3-pyridinyl)amino](cyanoimino)methyl]amino}propyl)-3-fluorobenzamide] came in with an Index of 0.048. Besides, for the setting “Sus scrofa”, the EC50 was 4 µM and the maximal response (Emax) stood at 93%.

For the compound `CC(Cl)(Cl)C(NC(=O)c1ccc(Cl)cc1)NC(=NC#N)Nc1ccc(C(F)(F)F)nc1` (stereo not drawn) [Example 158, 4-chloro-N-{2,2-dichloro-1-[((cyanoimino){[6-(trifluoromethyl)-3-pyridinyl]amino}methyl)amino]propyl}benzamide], the Index turned out to be 0.061. Moreover, under “Sus scrofa”, the EC50 worked out at 4.8 µM and the Emax turned out to be 92%.

`CC(Cl)(Cl)C(NC(=O)c1cccc(Cl)c1)NC(=NC#N)Nc1ccc(C(F)(F)F)nc1` (stereo not drawn) [Example 159, 3-chloro-N-{2,2-dichloro-1-[((cyanoimino){[6-(trifluoromethyl)-3-pyridinyl]amino}methyl)amino]propyl}benzamide] showed an Index of 0.013. Moreover, for the setting “Sus scrofa”, the EC50 is 7.9 µM and the Emax is 92%.

`CC(Cl)(Cl)C(NC(=O)c1ccc(Cl)cc1)NC(=NC#N)Nc1cccnc1Cl` (stereo not drawn) [Example 168, 4-chloro-N-(2,2-dichloro-1-{[[(2-chloro-3-pyridinyl)amino](cyanoimino)methyl]amino}propyl)benzamide] returned an Index of 0.064. For the same compound, for the setting “Sus scrofa”, the EC50 is 0.89 µM and the maximum response (Emax) was 92%.

The compound `CC(Cl)(Cl)C(NC(=O)c1cccc(Cl)c1)NC(=NC#N)Nc1cccc(F)c1` (stereo not drawn) [Example 169, 3-chloro-N-(2,2-dichloro-1-{[(cyanoimino)(3-fluoroanilino)methyl]amino}propyl)benzamide] returned an Index of 0.231. For the setting “Sus scrofa”, the EC50 turned out to be 5 µM and the maximal response (Emax) came out at 75%.

`Cc1cccc(C(=O)NC(NC(=NC#N)Nc2ccc(Cl)nc2)C(C)(Cl)Cl)c1` (stereo not drawn) [Example 170, N-(2,2-dichloro-1-{[[(6-chloro-3-pyridinyl)amino](cyanoimino)methyl]amino}propyl)-3-methylbenzamide] came in with an Index of 0.012. Under “Sus scrofa”, the EC50 was 4.2 µM and the maximal effect (Emax) was 100%.
